Laboratory results reported in patent US20100311671A1, “TRANSDERMAL DELIVERY OF PKC MODULATORY PEPTIDES THROUGH MI[…]” (Kai Pharmaceuticals, priority 2009, published 2010).

Columns and labels:
[1] = microporated vs intact rat skin; 30 μm planar skin sections (FIG. 1A)
Description: Male CD Hairless rats were weighed (range: 300-500 grams) and anesthetized by inhaled isoflurane. The rats remained under anesthesia for the duration of the experiment and were sacrificed after the last blood draw. Rats were cannulated at a femoral or jugular vein for blood draws. A derma roller with 1.0 or 1.5 mm microneedles (Moohan Dr. Roller) was rolled across a 1 cm^2 area of skin on the dorsal trunk or waist by passing the roller over the skin 5 times with moderate pressure. Fifty μL of the cPKC inhibitor peptide [sequence] (SEQ ID NO:13) attached to a TAT carrier peptide to form the conjugate peptide identified as SEQ ID NO: 14 at 1% to 10% (10 to 100 mg/mL) was applied to the microporated skin and occluded with a 1 cm^2 piece of saran wrap. […] As a control, rats with intact skin (i.e., rats not subjected to the microneedle array) were also treated with the same peptide conjugate.
To analyze levels of the εPKC inhibitor peptide [sequence] (SEQ ID NO:13) in plasma, both ELISA on planar skin sections and a sandwich ELISA that uses antibodies that recognize different portions of the conjugate (the εPKC inhibitor peptide and the TAT carrier peptide) were employed.

[2] = Transdermal delivery of conjugate to microporated rat skin, conjugate level in plasma by sandwich ELISA; type: in vivo, Male CD Hairless rats; conditions: rats; for Intact conjugate present in the blood stream as a function of time: after application to microporated skin, blood draws over 2-3 hour period; for Transdermal delivery of the peptide conjugate: applied to microporated skin relative to intact skin, occluded
Method: The γV5 peptide RLVLAS (SEQ ID NO: 43) with an […] (Ac) end cap was attached by a GG linker to a TAT carrier peptide (SEQ ID NO: 46) and then the C-terminus was amidated (NH2) to form a conjugate identified as SEQ ID NO: 49. Transdermal delivery of this conjugate was performed as described in Example 1 except that a 1 cm^2 solid polymer microneedle array was used to microporate the skin and an aqueous reservoir patch was used to contact a 10% aqueous formulation of the conjugate with the microporated skin. Results are shown in FIG. 3, where the amount of conjugate in the blood, in ng/mL, is shown as a function of time.

Row | Compound | Penetration of the peptide conjugate through the stratum corneum and into the underlying skin [1] | Intact conjugate present in the blood stream as a function of time [2] | Transdermal delivery of the peptide conjugate [2]
1 | Ac-EAVSLKPTGGYGRKKRRQRRR-NH2 [SEQ ID NO: 14, Ac-EAVSLKPT GG YGRKKRRQRRR-NH2] | increased penetration | in an increasing amount with time | significantly enhanced
2 | CC[C@H](C)[C@H](NC(=O)[C@@H]1CCCN1C(=O)[C@H](C)NC(=O)[C@H](CC(=O)O)NC(=O)[C@H](Cc1c[nH]cn1)NC(C)=O)C(=O)NCC(=O)N[C@@H](Cc1ccc(O)cc1)C(=O)N[C@@H](CC(=O)O)C(=O)NCCCCCC(=O)N[C@@H](Cc1ccc(O)cc1)C(=O)NCC(=O)N[C@@H](CCCNC(=N)N)C(=O)N[C@@H](CCCCN)C(=O)N[C@@H](CCCCN)C(=O)N[C@@H](CCCNC(=N)N)C(=O)N[C@@H](CCCNC(=N)N)C(=O)N[C@@H](CCC(N)=O)C(=O)N[C@@H](CCCNC(=N)N)C(=O)N[C@@H](CCCNC(=N)N)C(=O)N[C@@H](CCCNC(=N)N)C(N)=O [SEQ ID NO: 19, AC-HDAPIGYD-AHX-YGRKKRRQRRR-NH2] |  | in an increasing amount with time | enhanced
